In patent US10584115B2, “Substituted pyridine and pyrazine BMI-1 inhibitors” (PTC Therapeutics, Inc., priority 2013, dated 2020):

tested on: Bmi-1 protein; assay: Sandwich ELISA Assay (Bmi-1 protein level in HT-1080 cells after compound treatment); assay type: cell-based; conditions: Table 1, Bmi-1 sandwich ELISA, read-out: ELISA EC50 value for Bmi-1 protein
Summary of the method: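 HT-1080 cells exposed to compounds for 40–48 h at 37 °C (0.5% DMSO final), then lysed. Bmi-1 in lysates measured by sandwich ELISA (mouse monoclonal capture, rabbit anti-Bmi-1 detection, HRP anti-rabbit, TMB), read at OD450 with OD570 reference against a recombinant Bmi-1 standard curve (0–8000 pg/mL).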

| Structure (SMILES) | EC50 [nM] |
| --- | --- |
| Cc1nc2ncc(Nc3ccc(OC(F)F)cc3)cc2n1-c1cncc(Nc2ccc(OC(F)F)cc2)n1 [compound 547, N-[4-(difluoromethoxy)phenyl]-1-(6-{[4-(difluoromethoxy)phenyl]amino}pyrazin-2-yl)-2-methyl-1H-imidazo[4,5-b]pyridin-6-amine] | 100 to 3000 |
| CCc1nc2ncc(Cl)cc2n1-c1cncc(Nc2ccc(OC(F)(F)F)cc2)n1 [compound 548, 6-(6-chloro-2-ethyl-1H-imidazo[4,5-b]pyridin-1-yl)-N-[4-(trifluoromethoxy)phenyl]pyrazin-2-amine] | 10 to 100 |
| CCc1nc2ncc(Cl)cc2n1-c1cncc(Nc2ccccc2)n1 [compound 549] | 100 to 3000 |
| CCc1nc2ncc(Nc3ccc(OC(F)F)c(F)c3)cc2n1-c1cncc(Nc2ccc(OC(F)F)c(F)c2)n1 [compound 550, N-[4-(difluoromethoxy)-3-fluorophenyl]-1-(6-{[4-(difluoromethoxy)-3-fluorophenyl]amino}pyrazin-2-yl)-2-ethyl-1H-imidazo[4,5-b]pyridin-6-amine] | 100 to 3000 |
| COc1ccc(Nc2cncc(-n3c(C)nc4ccc(F)cc43)n2)cc1 [compound 553, 6-(6-fluoro-2-methyl-1H-benzimidazol-1-yl)-N-(4-methoxyphenyl)pyrazin-2-amine] | 1 to 10 |
| Cc1nc2ccc(F)cc2n1-c1cncc(Nc2ccc(Cl)cc2)n1 [compound 554, N-(4-chlorophenyl)-6-(6-fluoro-2-methyl-1H-benzimidazol-1-yl)pyrazin-2-amine] | 10 to 100 |
| COc1cccc(Nc2cncc(-n3c(C)nc4ccccc43)n2)c1 [compound 557, N-(3-methoxyphenyl)-6-(2-methyl-1H-benzimidazol-1-yl)pyrazin-2-amine] | 100 to 3000 |
| COc1cccc(Nc2cncc(-n3c(C)nc4ccc(F)cc43)n2)c1 [compound 559, 6-(6-fluoro-2-methyl-1H-benzimidazol-1-yl)-N-(3-methoxyphenyl)pyrazin-2-amine] | 100 to 3000 |
| COc1ccc(Nc2cncc(-n3c(C)nc4ccccc43)n2)cc1 [compound 561, N-(4-methoxyphenyl)-6-(2-methyl-1H-benzimidazol-1-yl)pyrazin-2-amine] | 1 to 10 |
| Cc1ccc(Nc2cncc(-n3c(C)nc4ccccc43)n2)cc1 [compound 562, 6-(2-methyl-1H-benzimidazol-1-yl)-N-(4-methylphenyl)pyrazin-2-amine] | 1 to 10 |
| Cc1ccc(Nc2cncc(-n3c(C)nc4ccccc43)n2)c(N)c1 [compound 563, 4-methyl-N^1-[6-(2-methyl-1H-benzimidazol-1-yl)pyrazin-2-yl]benzene-1,2-diamine] | 10 to 100 |
| Cc1nn2ccccc2c1-c1cncc(Nc2ccccc2)n1 [compound 564, 6-(2-methylpyrazolo[1,5-a]pyridin-3-yl)-N-phenylpyrazin-2-amine] | 100 to 3000 |
| COc1ccc(Nc2cncc(-c3c(C)nn4ccccc34)n2)cc1 [compound 565, N-(4-methoxyphenyl)-6-(2-methylpyrazolo[1,5-a]pyridin-3-yl)pyrazin-2-amine] | < 1 |
| Cc1ccc(Nc2cncc(-c3c(C)nn4ccccc34)n2)cc1 [compound 566, N-(4-methylphenyl)-6-(2-methylpyrazolo[1,5-a]pyridin-3-yl)pyrazin-2-amine] | 1 to 10 |
| Cc1nn2ccccc2c1-c1cncc(Nc2ccc(Cl)cc2)n1 [compound 567, N-(4-chlorophenyl)-6-(2-methylpyrazolo[1,5-a]pyridin-3-yl)pyrazin-2-amine] | 10 to 100 |
| Cc1nn2ccccc2c1-c1cncc(Nc2ccc(F)cc2)n1 [compound 568, N-(4-fluorophenyl)-6-(2-methylpyrazolo[1,5-a]pyridin-3-yl)pyrazin-2-amine] | 100 to 3000 |
| COc1cccc(Nc2cncc(-c3c(C)nn4ccccc34)n2)c1 [compound 569, N-(3-methoxyphenyl)-6-(2-methylpyrazolo[1,5-a]pyridin-3-yl)pyrazin-2-amine] | 10 to 100 |
| Cc1nn2ccccc2c1-c1cncc(Nc2cccc(Cl)c2)n1 [compound 570, N-(3-chlorophenyl)-6-(2-methylpyrazolo[1,5-a]pyridin-3-yl)pyrazin-2-amine] | 100 to 3000 |
| Cc1nn2ccccc2c1-c1cncc(Nc2ccc(C#N)cc2)n1 [compound 571, 4-{[6-(2-methylpyrazolo[1,5-a]pyridin-3-yl)pyrazin-2-yl]amino}benzonitrile] | 10 to 100 |
| COC(=O)c1ccc(Nc2cncc(-c3c(C)nn4ccccc34)n2)cc1 [compound 572, methyl 4-{[6-(2-methylpyrazolo[1,5-a]pyridin-3-yl)pyrazin-2-yl]amino}benzoate] | 1 to 10 |
| COc1ccc(Nc2cncc(-n3c(C)nc4cc(F)c(F)cc43)n2)cc1 [compound 573, 6-(5,6-difluoro-2-methyl-1H-benzimidazol-1-yl)-N-(4-methoxyphenyl)pyrazin-2-amine] | 100 to 3000 |

| Structure (SMILES) | EC50 [nM] |
| --- | --- |
| Cc1ccc(Nc2cncc(-n3c(C)nc4cc(F)c(F)cc43)n2)cc1 [compound 574, 6-(5,6-difluoro-2-methyl-1H-benzimidazol-1-yl)-N-(4-methylphenyl)pyrazin-2-amine] | 100 to 3000 |
| Cc1nc2cc(F)c(F)cc2n1-c1cncc(Nc2ccc(Cl)cc2)n1 [compound 575, N-(4-chlorophenyl)-6-(5,6-difluoro-2-methyl-1H-benzimidazol-1-yl)pyrazin-2-amine] | 10 to 100 |
| COc1cc(C)ccc1Nc1cncc(-n2c(C)nc3ccccc32)n1 [compound 576, N-(2-methoxy-4-methylphenyl)-6-(2-methyl-1H-benzimidazol-1-yl)pyrazin-2-amine] | 100 to 3000 |
| COc1ccc(Nc2cc(-n3c(C)ccc3C)cc(-n3c(C)nc4ccccc43)n2)cc1 [compound 577, 4-(2,5-dimethyl-1H-pyrrol-1-yl)-N-(4-methoxyphenyl)-6-(2-methyl-1H-benzimidazol-1-yl)pyridin-2-amine] | 100 to 3000 |
| COc1cccc(Nc2cncc(-n3c(C)nc4cc(F)c(F)cc43)n2)c1 [compound 578, 6-(5,6-difluoro-2-methyl-1H-benzimidazol-1-yl)-N-(3-methoxyphenyl)pyrazin-2-amine] | 100 to 3000 |
| Cc1nc2cc(F)c(F)cc2n1-c1cncc(Nc2ccc3c(c2)OC(F)(F)O3)n1 [compound 579, N-(2,2-difluoro-1,3-benzodioxol-5-yl)-6-(5,6-difluoro-2-methyl-1H-benzimidazol-1-yl)pyrazin-2-amine] | 100 to 3000 |
| COc1ccc(Nc2cc(N)cc(-n3c(C)nc4ccccc43)n2)cc1 [compound 580, N^2-(4-methoxyphenyl)-6-(2-methyl-1H-benzimidazol-1-yl)pyridine-2,4-diamine] | 10 to 100 |
| Cc1ccc(Nc2cncc(-n3c(C)nc4ccccc43)n2)c(O)c1 [compound 582, 5-methyl-2-{[6-(2-methyl-1H-benzimidazol-1-yl)pyrazin-2-yl]amino}phenol] | 1 to 10 |
| COc1ccc(Nc2cc(C#N)cc(-n3c(C)nc4cc(F)c(F)cc43)n2)cc1 [compound 583, 2-(5,6-difluoro-2-methyl-1H-benzimidazol-1-yl)-6-[(4-methoxyphenyl)amino]pyridine-4-carbonitrile] | 1 to 10 |
| Cc1nc2ccc(F)cc2n1-c1cc(C#N)cc(Nc2ccc(OC(F)(F)F)cc2)n1 [compound 588, 2-(6-fluoro-2-methyl-1H-benzimidazol-1-yl)-6-{[4-(trifluoromethoxy)phenyl]amino}pyridine-4-carbonitrile] | 10 to 100 |
| COc1ccc(Nc2cc(C#N)cc(-n3c(C)nc4ccc(F)cc43)n2)cc1 [compound 589, 2-(6-fluoro-2-methyl-1H-benzimidazol-1-yl)-6-[(4-methoxyphenyl)amino]pyridine-4-carbonitrile] | 10 to 100 |
| COc1ccc(Nc2cncc(-c3c(C)nc4ccc(F)cn34)n2)cc1 [compound 592, 6-(6-fluoro-2-methylimidazo[1,2-a]pyridin-3-yl)-N-(4-methoxyphenyl)pyrazin-2-amine] | < 1 |
| Cc1ccc(Nc2cc(C#N)cc(-n3c(C)nc4cc(F)c(F)cc43)n2)cc1 [compound 599, 2-(5,6-difluoro-2-methyl-1H-benzimidazol-1-yl)-6-[(4-methylphenyl)amino]pyridine-4-carbonitrile] | 10 to 100 |
| Cc1nc2cc(F)c(F)cc2n1-c1cc(C#N)cc(Nc2ccc(Cl)cc2)n1 [compound 600, 2-[(4-chlorophenyl)amino]-6-(5,6-difluoro-2-methyl-1H-benzimidazol-1-yl)pyridine-4-carbonitrile] | 10 to 100 |
| Cc1nc2cc(F)c(F)cc2n1-c1cccc(Nc2ccc(C(F)(F)F)cc2)n1 [compound 601, 6-(5,6-difluoro-2-methyl-1H-benzimidazol-1-yl)-N-[4-(trifluoromethyl)phenyl]pyridin-2-amine] | 10 to 100 |
| Cc1nc2cc(F)c(F)cc2n1-c1cccc(Nc2ccc(OC(F)F)cc2)n1 [compound 602, N-[4-(difluoromethoxy)phenyl]-6-(5,6-difluoro-2-methyl-1H-benzimidazol-1-yl)pyridin-2-amine] | 10 to 100 |
| Cc1nc2cc(F)c(F)cc2n1-c1cccc(Nc2ccc(OC(F)(F)F)cc2)n1 [compound 603, 6-(5,6-difluoro-2-methyl-1H-benzimidazol-1-yl)-N-[4-(trifluoromethoxy)phenyl]pyridin-2-amine] | 100 to 3000 |
| Cc1nc2ccccc2n1-c1cc(N)cc(Nc2ccc(OC(F)(F)F)cc2)n1 [compound 604] | 100 to 3000 |
| Cc1nc2ccccc2n1-c1cc(N)cc(Nc2ccc(F)cc2)n1 [compound 605, N^2-(4-fluorophenyl)-6-(2-methyl-1H-benzimidazol-1-yl)pyridine-2,4-diamine] | 100 to 3000 |
| Cc1ccc(Nc2cc(C#N)cc(-n3c(C)nc4ccc(F)cc43)n2)cc1 [compound 611, 2-(6-fluoro-2-methyl-1H-benzimidazol-1-yl)-6-[(4-methylphenyl)amino]pyridine-4-carbonitrile] | 1 to 10 |
| Cc1nc2ccc(F)cc2n1-c1cc(C#N)cc(Nc2ccc(Cl)cc2)n1 [compound 612, 2-[(4-chlorophenyl)amino]-6-(6-fluoro-2-methyl-1H-benzimidazol-1-yl)pyridine-4-carbonitrile] | 10 to 100 |
